From patent publication US20020049173A1, “Alteration of cellular behavior by antisense modulation of mRNA processing” (priority 1999, published 2002)
In the oligonucleotide strings, read from the 5' end, every base follows the letter of its sugar. An asterisk marks phosphorothioate; unmarked linkages are phosphodiester. Other units and linkages are bracketed, terminal groups are in braces. A string of capitals states the bases alone. e = 2'-O-(2-methoxyethyl) (MOE); [5mC] = 5-methylcytosine

How the values were obtained:
A549 cells [1] = assay: Sensitization of A549 cells to cisplatinum-induced cell death, propidium iodide staining; assay type: cell-based, human; settings: 100 nM oligo
Experimental: A549 cells were treated with 100 nM ISIS 22783 or the 5-mismatch ISIS 26080 and cisplatinum at various doses. The percent apoptotic cells was quantitated by propidium iodide staining according to standard methods.

murine bcl-x mRNA [2] = assay: bcl-xs mRNA expression in vivo in mouse liver; settings: preliminary experiments
From the text: (§1) ISIS 22783 is also fully complementary to the murine bcl-x mRNA which makes it useful for animal studies.

human bcl-x mRNA [3] = assay: Total bcl-x mRNA and bcl-xs/bcl-xl ratio in A549 cells, RNase protection; assay type: cell-based
From the text: In accordance with the present invention, a series of oligonucleotides were designed to target different regions of human bcl-x RNA, using published sequences (Boise, L. H., et al., 1993, Cell 74, 597-608; Genbank Accession No. L20121, locus name “HSBCLXL,” incorporated herein as SEQ ID NO: 39). Antisense oligonucleotides were designed to target areas of exon 1 and exon 2 of human bcl-x, particularly around the exon 1/exon 2 splice site and in sequence regions present in bcl-xl but not in bcl-xs. All backbone linkages are phosphorothioates; All 2′MOE cytosines are 5-methylcytosines.
Oligonucleotides were evaluated for their respective effects on bcl-xs and bcl-xl3 mRNA levels in A549 cells along with total bcl-x mRNA levels, using the RIBOQUANT™ RNase protection kit (Pharmingen, San Diego Calif.). All assays were performed according to manufacturer's protocols.
A “walk” was done in this region with 20mer 2′-MOE phosphorothioate oligonucleotides targeted to sequences whose 5′ ends were 24, 26, 29, 31, 33, 37, 39, 41, 43, 44, 45 and 47 bases upstream of the splice site. These oligonucleotides were screened as before at a dose of 200 nM oligonucleotide for effect on short and long bcl-x transcripts.

murine bcl-x mRNA [4] = assay: bcl-xs mRNA induction in mouse cell lines bEND, AML12 and Hepa; assay type: cell-based
From the text: as §1

A549 cells [5] = assay: Sensitization of A549 cells to taxol-induced cell death, propidium iodide staining; assay type: cell-based, human; settings: 100 nM oligo
Experimental: A549 cells were treated with 100 nM ISIS 22783 or the 5-mismatch ISIS 26080 and taxol at various doses. The percent apoptotic cells was quantitated by propidium iodide staining according to standard methods.

bax mRNA = bax mRNA by RNAse protection assay; assay type: cell-based
Experimental: ISIS 22783 was tested by RNAse protection assay for ability to inhibit bax, another apoptotic gene. It had no effect on bax mRNA levels.

A549 cells [6] = assay: Sensitization of A549 cells to UV-induced cell death, propidium iodide staining; assay type: cell-based, human; settings: 100 nM oligo
Experimental: A549 cells were treated with 100 nM ISIS 22783 or the 5-mismatch ISIS 26080 and exposed to ultraviolet (UV) radiation. The percent apoptotic cells was quantitated by propidium iodide staining according to standard methods.

human bcl-x mRNA [7] = assay: Total bcl-x mRNA and bcl-xs/bcl-xl ratio in A549 cells, RNase protection; assay type: cell-based; remark: listed apart in the source

ISIS 22783: CTGGATCCAAGGCTCTAGGT, SEQ ID 44; fully 2′-MOE, full-phosphorothioate; bcl-xl Exon 1L 664-683 (e[5mC]*eT*eG*eG*eA*eT*e[5mC]*e[5mC]*eA*eA*eG*eG*e[5mC]*eT*e[5mC]*eT*eA*eG*eG*eT)
% Apoptotic cells (approx) (A549 cells [1]; cisplatinum 0 μg/ml): ~3%
% Apoptotic cells (approx) (A549 cells [1]; cisplatinum 1 μg/ml): ~6%
% Apoptotic cells (approx) (A549 cells [1]; cisplatinum 10 μg/ml): ~13%
% Apoptotic cells (approx) (A549 cells [1]; cisplatinum 50 μg/ml): ~27%
bcl-xs mRNA expression in mouse liver (murine bcl-x mRNA [2]): slight induction of bcl-xs mRNA expression
time after treatment at which bcl-xs induction with concurrent bcl-xL reduction begins (human bcl-x mRNA [3]; A549 cells): 2 to 4 h
% CRTL total bcl-x (human bcl-x mRNA [3]; A549 cells (Table 13)): without reducing the total bcl-x mRNA level
bcl-xs/bcl-xl (%) (human bcl-x mRNA [3]; A549 cells, no oligo 17.56): 293%
approx. ratio of bcl-xs/bcl-xl (human bcl-x mRNA [3]; Oligo Concentration 200 (unit not given)): ~8.5
induction of bcl-xs mRNA (murine bcl-x mRNA [4]): induction of bcl-xs mRNA
% Apoptotic cells (approx) (A549 cells [5]; taxol 0 μg/ml): ~8%
% Apoptotic cells (approx) (A549 cells [5]; taxol 5 μg/ml): ~8%
% Apoptotic cells (approx) (A549 cells [5]; taxol 10 μg/ml): ~15%
% Apoptotic cells (approx) (A549 cells [5]; taxol 30 μg/ml): ~26%
effect on bax mRNA levels (bax mRNA): no effect
% Apoptotic cells (approx) (A549 cells [6]; UV 0 mJ/M^2): ~2%
% Apoptotic cells (approx) (A549 cells [6]; UV 50 mJ/M^2): ~4%
% Apoptotic cells (approx) (A549 cells [6]; UV 100 mJ/M^2): ~33%
% Apoptotic cells (approx) (A549 cells [6]; UV 200 mJ/M^2): ~27%
approx. ratio of bcl-xs/bcl-xl (human bcl-x mRNA [7]; Oligo Concentration 100 (unit not given)): ~4.5
approx. ratio of bcl-xs/bcl-xl (human bcl-x mRNA [7]; Oligo Concentration 400 (unit not given)): ~18
